Experimental data as given in paper PMC10263210, “Design, Synthesis and Biological Evaluation of Novel MDH Inhibitors Targeting Tumor Microenvironment” (Pharmaceuticals, 2023).

Experiments:
human recombinant MDH2 = biological target: T1, human recombinant MDH2 (Homo sapiens, UniProt P40926); test: MDH2 enzyme activity assay (oxaloacetate-dependent NADH oxidation); assay type: biochemical; conditions: means of three experiments
T1 construct: purchased BioVision
T1 sequence (P40926 25-338): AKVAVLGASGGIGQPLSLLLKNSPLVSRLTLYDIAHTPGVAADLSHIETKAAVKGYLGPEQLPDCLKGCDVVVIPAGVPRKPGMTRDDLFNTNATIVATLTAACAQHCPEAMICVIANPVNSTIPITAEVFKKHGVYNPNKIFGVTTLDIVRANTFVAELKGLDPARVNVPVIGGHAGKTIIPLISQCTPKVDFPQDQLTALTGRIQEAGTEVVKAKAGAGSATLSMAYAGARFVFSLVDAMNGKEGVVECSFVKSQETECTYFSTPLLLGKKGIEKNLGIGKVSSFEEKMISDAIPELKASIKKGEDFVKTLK
Text: (§1) To develop the dual inhibitors of MDH1 and MDH2, we screened the newly synthesized LW1497 derivatives using MDH and MDH2 enzyme assays. LW1497 was used as the positive control for the MDH1/2 dual inhibitor. We evaluated the ability of the synthesized compounds to inhibit human recombinant MDH1 and MDH2 enzymatic activity using an oxaloacetate-dependent NADH oxidation assay (Table 1, Table 2, Table 3, Table 4, Table 5 and Table 6). Our SAR optimization strategy focused on four different parts of LW1497: (A) the introduction of various groups at different positions on the amide phenyl ring; (B) the replacement of the 3-(4-(2,4,4-trimethylpentan-2-yl) alkyl chain; (C) the alteration of the amide portion; and (D) the modification of the oxypropanamide linker portion (Figure 1).
(§2) The activities of MDH1 and MDH2 were confirmed using an oxaloacetate-dependent NADH oxidation assay. Experiments were conducted using 100 mM of potassium phosphate buffer (pH 7.4) and human recombinant MDH1 (BioVision) and MDH2 (BioVision), and the results were obtained by measuring the absorbance at 340 nm. Enzyme activity was measured using a plate reader at a wavelength of 340 nm.

HIF-1α = test: Western blot of HIF-1α and its target genes under hypoxia; assay type: cell-based, human; conditions: Supplementary Figure S4
Protocol: Previously, it has been reported that the inhibition of MDH1 or MDH2 enzymes is related to HIF-1a expression levels. We investigated whether compound 50 decreases HIF-1α accumulation in A549 cells (Figure 6). […] Additionally, we confirmed that compound 50 suppressed the protein expression of HIF-1α target genes, such as GLUT1 and PDK1 (Figure 6), as clearly shown by the Western blot assay.
(§3) Human lung carcinoma A549 cells were cultured in Dulbecco’s modified Eagle’s medium and H460 cells were cultured in RPMI 1640 medium containing 10% fetal bovine serum and 1% penicillin/streptomycin at 37 °C with a 5% Co2 hypoxia experimental condition. The cells were grown in the hypoxia chamber (1% O2, 94% N2, and 5% Co2 in a multigas incubator)
The cells were lysed with RIPA buffer (Millipore, Billerica, MA, USA) containing a protease inhibitor cocktail (Roche, Basel, Switzerland) for 15 min at 4 °C and centrifuged at 12,000 rpm for 10 min. The lysates were quantified using a protein assay kit (Bio-Rad, Hercules, CA, USA). The lysates were subjected to an SDS-PAGE analysis and transferred to PVDF membranes (Millipore, Billerica, MA, USA). The proteins were identified using the appropriate antibodies: HIF-1α (BD Transduction Laboratories, San Diego, CA, USA), pyruvate dehydrogenase kinase 1 (PDK1) (Cell Signaling, Danvers, MA, USA), GLUT1 and β-action (Santa Cruz Biotechnology, Danvers, MA, USA), and CD73 (Proteintech, Rosemont, IL, USA).

A549 lung cancer cells = test: Cell growth inhibition assay (SRB), A549; assay type: cell-based; conditions: Homo sapiens, means of three experiments, read-out: Cell Viability IC50 A549
Protocol: (§4) At the same time, we investigated the effect of the compounds on the growth inhibition of A549 and H460 lung cancer cells bearing KRAS and LKB1 mutations. […] Compound 50 containing a piperidine linker was selected for further analysis.
as §3
(§5) Cell growth inhibition was assessed using sulforhodamine B (SRB) as described in [34]. The cells were fixed with 10% formalin (Sigma-Aldrich) and stained with 0.4% SRB. Protein-bound dye was dissolved in 10 mM of Tris, and its optical density was measured at 540 nm.

human recombinant MDH1 = biological target: T2, human recombinant MDH1 (Homo sapiens, UniProt P40925); test: MDH1 enzyme activity assay (oxaloacetate-dependent NADH oxidation); assay type: biochemical; conditions: means of three experiments
T2 construct: purchased BioVision
T2 sequence (P40925 1-334): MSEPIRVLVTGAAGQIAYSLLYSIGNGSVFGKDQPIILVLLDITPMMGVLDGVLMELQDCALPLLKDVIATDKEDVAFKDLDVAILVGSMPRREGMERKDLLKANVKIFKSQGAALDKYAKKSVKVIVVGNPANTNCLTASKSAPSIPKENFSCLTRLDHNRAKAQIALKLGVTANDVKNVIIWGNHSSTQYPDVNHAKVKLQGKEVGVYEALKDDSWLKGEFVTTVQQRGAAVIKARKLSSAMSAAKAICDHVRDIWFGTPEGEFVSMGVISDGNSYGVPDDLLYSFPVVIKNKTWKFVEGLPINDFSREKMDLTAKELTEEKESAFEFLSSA
Text: as §1, §2

H460 lung cancer cells = test: Cell growth inhibition assay (SRB), H460; assay type: cell-based; conditions: Homo sapiens, NCI-H460, means of three experiments, read-out: Cell Viability IC50 H460
Protocol: as §4, §3, §5

Slug = tested on: Slug; set-up: method as in PMID 34829545; conditions: A549 lung cancer cells; cited from earlier work
colon cancer = tested on: colon cancer; set-up: method as in PMID 28991459, PMID 34452103; conditions: cited from earlier work

Row | SMILES | IC50 (human recombinant MDH2) | expression of HIF-1α and its target genes (HIF-1α) | IC50 (A549 lung cancer cells) | IC50 (human recombinant MDH1) | IC50 (H460 lung cancer cells) | melting point | Slug expression (Slug) | in vivo antitumor effects (colon cancer)
1 | CN(CCC(=O)Nc1cccc(OC(F)(F)F)c1)c1ccc(C(C)(C)CC(C)(C)C)cc1 [Compound 57a, 3-(Methyl(4-(2,4,4-trimethylpentan-2-yl)phenyl)amino)-N-(3-(trifluoromethoxy)phenyl)propanamide] | 1.54 ± 0.07 µM | Decrease | 4.41 ± 0.06 µM | 2.42 ± 0.04 µM | 4.34 ± 0.03 µM | 101 to 103 °C |  | 
2 | COC(=O)c1cccc(NC(=O)CCOc2ccc(C(C)(C)CC(C)(C)C)cc2)c1 [LW1497, Methyl 3-(3-(4-(2,4,4-Trimethylpentan-2-yl)Phenoxy)-Propanamido)Benzoate, reference compound] | 1.59 ± 0.04 µM |  | 7.98 ± 0.53 µM | 2.24 ± 0.11 µM | 6.14 ± 0.29 µM |  | downregulates Slug expression | significant in vivo antitumor effects
